Key:
[1] = system: CDK1 phosphorylation in tsFT210 cells; test: Western blotting of CDK1 phosphorylation status in tsFT210 cells; assay type: cell-based, mouse; details: 5–50 μM, permissive temperature 32 °C
tsFT210 cells = test: Cell cycle analysis of G2-synchronized tsFT210 cells; assay type: cell-based, mouse; details: 5–50 μM, 4 h at 32 °C, compared with the vehicle control
[2] = system: ROS level in tsFT210 cells; test: Measurement of ROS in tsFT210 cells with H2DCFDA; details: 50 μM, 30 min at 32 °C

Compound	inhibition of the dephosphorylation of CDK1 [1]	effect on G2/M arrest of tsFT210 cells after release (tsFT210 cells)	change of H2DCFDA fluorescence intensity (ROS) [2]
CCCCCCCCCCCCCCC/C(NCc1ccccc1)=C1/C(=O)OC(CO)C1=O (stereo not drawn) [Compound 7]	concentration dependently inhibited the dephosphorylation of CDK1	predominantly maintained the G2/M arrest of tsFT210 cells in a concentration-dependent manner	did not induce a significant change
CCCCCCCCCCCCCCCC(NCc1cccc(C)c1)=C1C(=O)OC(CO)C1=O (stereo not drawn) [Compound 8a]	did not inhibit the dephosphorylation of CDK1 even at 50 μM	had little effect on tsFT210 cells	did not induce a significant change
CCCCCCCCCCCCCCCC(NCc1ccccc1O)=C1C(=O)OC(CO)C1=O (stereo not drawn) [Compound 10d]	concentration dependently inhibited the dephosphorylation of CDK1	predominantly maintained the G2/M arrest of tsFT210 cells in a concentration-dependent manner	did not induce a significant change

— publication PMC3324983 (ACS Medicinal Chemistry Letters, 2012)
